Experiments:
Format in all cases: in vivo
[1] = tested on: ALOMY, Blackgrass, Alopecurus myosuroides; experiment: Postemergence herbicidal evaluation (Example 147); settings: rating scale 0-9, two to three weeks after treatment
Method: (§1) Seedling plants were grown in jiffy flats for about two weeks. The test compounds were dispersed in 80/20 acetone/water mixtures containing 1.0% SUN-IT®II, a methylated seed oil, in sufficient quantities to provide the equivalent of about 0.016 to 0.032 kg per hectare of active compound when applied to the plants through a spray nozzle operating at 40 psi for a predetermined time. After spraying, the plants were placed on greenhouse benches and were cared for in accordance with conventional greenhouse procedures. Approximately two to three weeks after treatment, the seedling plants were examined and rated according to the rating scale (0-9) set forth below. Where more than one test is involved for a given compound, the data are averaged. [table] The scale is based upon a visual observation of plant stand, vigor, malformation, size, chlorosis and overall plant appearance as compared with a control. Plant species employed in these evaluations are reported by header abbreviation, common name and scientific name. [table]

[2] = tested on: IPOHE, Morningglory, Ivyleaf, Ipomoea hederacea, (L)Jacq.; experiment: Postemergence herbicidal evaluation (Example 147); settings: rating scale 0-9, two to three weeks after treatment
Method: as §1

[3] = tested on: CHEAL, Lambsquarters, Chenopodium album, L. Common; experiment: Postemergence herbicidal evaluation (Example 147); settings: rating scale 0-9, two to three weeks after treatment
Method: as §1

[4] = tested on: ECHCG, Barnyardgrass, Echinochloa crusgalli, (L.)Beau; experiment: Postemergence herbicidal evaluation (Example 147); settings: rating scale 0-9, two to three weeks after treatment
Method: as §1

[5] = tested on: DIGSA, Crabgrass, (Hairy) L, Digitaria sanguinalis, (L)Scop; experiment: Postemergence herbicidal evaluation (Example 147); settings: rating scale 0-9, two to three weeks after treatment
Method: as §1

[6] = tested on: AMBEL, Ragweed, Common, Ambrosia artemiisifolia, L.; experiment: Postemergence herbicidal evaluation (Example 147); settings: rating scale 0-9, two to three weeks after treatment
Method: as §1

[7] = tested on: SETVI, Green foxtail, Setaria viridis, (L.)Beau; experiment: Postemergence herbicidal evaluation (Example 147); settings: rating scale 0-9, two to three weeks after treatment
Method: as §1

[8] = tested on: GLXMA, Soybean, Glycine max, (L.) Merr.; experiment: Postemergence herbicidal evaluation (Example 147); settings: rating scale 0-9, two to three weeks after treatment
Method: as §1

[9] = tested on: XANST, Cocklebur, Xanthium strumariam; experiment: Postemergence herbicidal evaluation (Example 147); settings: rating scale 0-9, two to three weeks after treatment
Method: as §1

[10] = tested on: ABUTH, Velvetleaf, Abutilon theophrasti, Medic.; experiment: Postemergence herbicidal evaluation (Example 147); settings: rating scale 0-9, two to three weeks after treatment
Method: as §1

[11] = tested on: TRZAW, Winter wheat, Tritium Aestivum, L. (Winter); experiment: Postemergence herbicidal evaluation (Example 147); settings: rating scale 0-9, two to three weeks after treatment
Method: as §1

[12] = tested on: ZEAMX, Field corn, Zea mays L.; experiment: Postemergence herbicidal evaluation (Example 147); settings: rating scale 0-9, two to three weeks after treatment
Method: as §1

[13] = tested on: ALOMY, Blackgrass, Alopecurus myosuroides; experiment: Preemergence herbicidal evaluation (Example 148); settings: rating scale 0-9, two to four weeks after treatment
Method: (§2) The scale is based upon a visual observation of plant stand, vigor, malformation, size, chlorosis and overall plant appearance as compared with a control.
(§3) The herbicidal activity of the compounds of the present invention was evaluated by the following tests wherein the seeds of a variety of monocotyledonous and dicotyledonous plants were separately mixed with potting soil and planted on top of approximately one inch of soil in separate pint cups. After planting, the cups were sprayed with the selected aqueous acetone solution containing test compound in sufficient quantity to provide the equivalent of about 0.125 to 0.250 kg per hectare of test compound per cup. The treated cups were then placed on greenhouse benches, watered and cared for in accordance with conventional greenhouse procedures. From two to four weeks after treatment, the tests were terminated and each cup was examined and rated according to the rating system provided in Example 94. When more than one test was performed for a given compound, the data were averaged.

[14] = tested on: IPOHE, Morningglory, Ivyleaf, Ipomoea hederacea, (L)Jacq.; experiment: Preemergence herbicidal evaluation (Example 148); settings: rating scale 0-9, two to four weeks after treatment
Method: as §2, §3

[15] = tested on: CHEAL, Lambsquarters, Chenopodium album, L. Common; experiment: Preemergence herbicidal evaluation (Example 148); settings: rating scale 0-9, two to four weeks after treatment
Method: as §2, §3

[16] = tested on: ECHCG, Barnyardgrass, Echinochloa crusgalli, (L.)Beau; experiment: Preemergence herbicidal evaluation (Example 148); settings: rating scale 0-9, two to four weeks after treatment
Method: as §2, §3

[17] = tested on: DIGSA, Crabgrass, (Hairy) L, Digitaria sanguinalis, (L)Scop; experiment: Preemergence herbicidal evaluation (Example 148); settings: rating scale 0-9, two to four weeks after treatment
Method: as §2, §3

[18] = tested on: AMBEL, Ragweed, Common, Ambrosia artemiisifolia, L.; experiment: Preemergence herbicidal evaluation (Example 148); settings: rating scale 0-9, two to four weeks after treatment
Method: as §2, §3

[19] = tested on: SETVI, Green foxtail, Setaria viridis, (L.)Beau; experiment: Preemergence herbicidal evaluation (Example 148); settings: rating scale 0-9, two to four weeks after treatment
Method: as §2, §3

[20] = tested on: GLXMA, Soybean, Glycine max, (L.) Merr.; experiment: Preemergence herbicidal evaluation (Example 148); settings: rating scale 0-9, two to four weeks after treatment
Method: as §2, §3

[21] = tested on: ABUTH, Velvetleaf, Abutilon theophrasti, Medic.; experiment: Preemergence herbicidal evaluation (Example 148); settings: rating scale 0-9, two to four weeks after treatment
Method: as §2, §3

[22] = tested on: TRZAW, Winter wheat, Tritium Aestivum, L. (Winter); experiment: Preemergence herbicidal evaluation (Example 148); settings: rating scale 0-9, two to four weeks after treatment
Method: as §2, §3

[23] = tested on: ZEAMX, Field corn, Zea mays L.; experiment: Preemergence herbicidal evaluation (Example 148); settings: rating scale 0-9, two to four weeks after treatment
Method: as §2, §3

SMILES: CCCNS(=O)(=O)NC(=O)c1cc(-n2c(=O)cc(C(F)(F)F)n(C)c2=O)c(F)cc1Cl [Example 63]
- Postemergence herbicidal rating ALMOY ([1]; rate 0.016 kg/ha): 2.0
- Postemergence herbicidal rating ALMOY ([1]; rate 0.032 kg/ha): 2.0
- Postemergence herbicidal rating IPOHE ([2]; rate 0.016 kg/ha): 9.0
- Postemergence herbicidal rating IPOHE ([2]; rate 0.032 kg/ha): 9.0
- Postemergence herbicidal rating CHEAL ([3]; rate 0.016 kg/ha): 7.0
- Postemergence herbicidal rating CHEAL ([3]; rate 0.032 kg/ha): 9.0
- Postemergence herbicidal rating ECHCG ([4]; rate 0.016 kg/ha): 4.0
- Postemergence herbicidal rating ECHCG ([4]; rate 0.032 kg/ha): 6.0
- Postemergence herbicidal rating DIGSA ([5]; rate 0.016 kg/ha): 4.0
- Postemergence herbicidal rating DIGSA ([5]; rate 0.032 kg/ha): 4.0
- Postemergence herbicidal rating AMBEL ([6]; rate 0.016 kg/ha): 9.0
- Postemergence herbicidal rating AMBEL ([6]; rate 0.032 kg/ha): 9.0
- Postemergence herbicidal rating SETVI ([7]; rate 0.016 kg/ha): 7.0
- Postemergence herbicidal rating SETVI ([7]; rate 0.032 kg/ha): 9.0
- Postemergence herbicidal rating GLXMA ([8]; rate 0.016 kg/ha): 8.0
- Postemergence herbicidal rating GLXMA ([8]; rate 0.032 kg/ha): 8.0
- Postemergence herbicidal rating XANST ([9]; rate 0.016 kg/ha): 9.0
- Postemergence herbicidal rating XANST ([9]; rate 0.032 kg/ha): 9.0
- Postemergence herbicidal rating ABUTH ([10]; rate 0.016 kg/ha): 9.0
- Postemergence herbicidal rating ABUTH ([10]; rate 0.032 kg/ha): 9.0
- Postemergence herbicidal rating TRZAW ([11]; rate 0.016 kg/ha): 6.0
- Postemergence herbicidal rating TRZAW ([11]; rate 0.032 kg/ha): 7.0
- Postemergence herbicidal rating ZEAMX ([12]; rate 0.016 kg/ha): 7.0
- Postemergence herbicidal rating ZEAMX ([12]; rate 0.032 kg/ha): 8.0
- Preemergence herbicidal rating ALMOY ([13]; rate 0.125 kg/ha): 0.0
- Preemergence herbicidal rating ALMOY ([13]; rate 0.25 kg/ha): 0.0
- Preemergence herbicidal rating IPOHE ([14]; rate 0.125 kg/ha): 9.0
- Preemergence herbicidal rating IPOHE ([14]; rate 0.25 kg/ha): 9.0
- Preemergence herbicidal rating CHEAL ([15]; rate 0.125 kg/ha): 9.0
- Preemergence herbicidal rating CHEAL ([15]; rate 0.25 kg/ha): 9.0
- Preemergence herbicidal rating ECHCG ([16]; rate 0.125 kg/ha): 4.0
- Preemergence herbicidal rating ECHCG ([16]; rate 0.25 kg/ha): 9.0
- Preemergence herbicidal rating DIGSA ([17]; rate 0.125 kg/ha): 3.0
- Preemergence herbicidal rating DIGSA ([17]; rate 0.25 kg/ha): 8.0
- Preemergence herbicidal rating AMBEL ([18]; rate 0.125 kg/ha): 9.0
- Preemergence herbicidal rating AMBEL ([18]; rate 0.25 kg/ha): 9.0
- Preemergence herbicidal rating SETVI ([19]; rate 0.125 kg/ha): 4.0
- Preemergence herbicidal rating SETVI ([19]; rate 0.25 kg/ha): 8.0
- Preemergence herbicidal rating GLXMA ([20]; rate 0.125 kg/ha): 1.0
- Preemergence herbicidal rating GLXMA ([20]; rate 0.25 kg/ha): 5.0
- Preemergence herbicidal rating ABUTH ([21]; rate 0.125 kg/ha): 9.0
- Preemergence herbicidal rating ABUTH ([21]; rate 0.25 kg/ha): 9.0
- Preemergence herbicidal rating TRZAW ([22]; rate 0.125 kg/ha): 0.0
- Preemergence herbicidal rating TRZAW ([22]; rate 0.25 kg/ha): 0.0
- Preemergence herbicidal rating ZEAMX ([23]; rate 0.125 kg/ha): 0.0
- Preemergence herbicidal rating ZEAMX ([23]; rate 0.25 kg/ha): 0.0

Source: patent US6689773B2, “Uracil substituted phenyl sulfamoyl carboxamides” (BASF Aktiengesellschaft, priority 2000, dated 2004)
